From patent US12559529B2, “NPY2 receptor agonists” (Boehringer Ingelheim International GmbH, priority 2019, dated 2026)
*1 amine or outer side, *2 acyl side, *3 side chain or, on linkers, in order; H or OH if unused. Where a SMILES comes first, the peptide text is derived from it. Side-chain parts run from the residue outwards. The star is where a group is joined. C18 diacid = O=C(O)CCCCCCCCCCCCCCCCC(=O)*; γGlu = O=C(O)[C@H](CCC(=O)[*:2])N[*:1]; Isovaleryl = CC(C)CC(=O)*; AEEA = NCCOCCOCC(=O)O

Assays:
normal NMRI mice = assay: Effect on acute food intake in normal NMRI mice; assay type: in vivo; conditions: male NMRI mice, 10 nmol/kg subcutaneously once
How it was run: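 Male NMRI mice acclimatized in an HM-2 real-time food intake monitoring system, fasted 6 h before dark phase. Single subcutaneous dose of 10 nmol/kg peptide given 1 h before dark; n=7-8. Food intake expressed as % of vehicle group (50 mM phosphate pH7, 5% Mannitol).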

[1] = target: T1, Human Neuropeptide Y2 Receptor (Homo sapiens, UniProt P49146); assay: Radioligand binding competition assay (RLB); conditions: Table 3; human 125I-PYY (1-36) 0.02 nM, Y2 receptor membranes; read-out: Ki
T1 construct: purchased CHEMICON HTS066M
T1 sequence (P49146 1-381): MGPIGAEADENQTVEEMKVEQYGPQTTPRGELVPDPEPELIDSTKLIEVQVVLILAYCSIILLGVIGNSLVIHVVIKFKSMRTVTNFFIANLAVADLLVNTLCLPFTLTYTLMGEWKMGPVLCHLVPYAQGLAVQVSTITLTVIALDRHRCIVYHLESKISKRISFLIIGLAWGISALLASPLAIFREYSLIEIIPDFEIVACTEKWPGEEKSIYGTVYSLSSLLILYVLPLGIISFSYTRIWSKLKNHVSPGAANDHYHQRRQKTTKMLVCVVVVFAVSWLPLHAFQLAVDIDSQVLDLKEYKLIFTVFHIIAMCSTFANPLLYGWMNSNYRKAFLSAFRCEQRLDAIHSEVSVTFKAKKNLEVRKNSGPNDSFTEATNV
How it was run: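 Filtration format; Y2R membrane prep 0.5 μg/well; buffer 50 mM HEPES/5 mM MgCl2/1 mM CaCl2/0.2% ovalbumin pH 7.4; 2 h RT, shaking. Harvest on PEI-soaked GF/C, ice-cold HEPES/500 mM NaCl washes, scintillation count. IC50 by nonlinear fit.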

| Compound | Ki [1] [nM] | Acute Food Intake 24 h [% vehicle] (normal NMRI mice) |
| --- | --- | --- |
| CC(C)CC(=O)N[C@@H](C)C(=O)N1CCC[C@H]1C(=O)N[C@@H](CCC(=O)O)C(=O)N[C@@H](CCCCNC(=O)COCCOCCNC(=O)COCCOCCNC(=O)CC[C@H](NC(=O)CCCCCCCCCCCCCCCCC(=O)O)C(=O)O)C(=O)N1CCC[C@H]1C(=O)N[C@@H](CCC(=O)O)C(=O)N[C@@H](CCC(=O)O)C(=O)N[C@@H](CC(=O)O)C(=O)N[C@@H](C)C(=O)N[C@@H](CO)C(=O)N1CCC[C@H]1C(=O)N[C@@H](CCC(=O)O)C(=O)N[C@@H](CCC(=O)O)C(=O)N[C@@H](CC(C)C)C(=O)N[C@@H](CCC(N)=O)C(=O)N[C@@H](CCCCN)C(=O)N[C@@H](Cc1ccc(O)cc1)C(=O)N[C@@H](Cc1ccc(O)cc1)C(=O)N[C@H](C(=O)N[C@H](C(=O)N[C@@H](CC(C)C)C(=O)N[C@@H](CCCNC(=N)N)C(=O)N[C@@H](Cc1c[nH]cn1)C(=O)N[C@@H](Cc1ccc(O)cc1)C(=O)N[C@@H](Cc1ccc(O)cc1)C(=O)N[C@@H](CC(N)=O)C(=O)N[C@@H](Cc1c[nH]c2ccccc12)C(=O)N[C@@H](CC(C)C)C(=O)N[C@H](C(=O)N[C@@H](CCCNC(=N)N)C(=O)N[C@@H](CCC(N)=O)C(=O)N[C@@H](CCCNC(=N)N)C(=O)N[C@@H](Cc1ccc(O)cc1)C(N)=O)[C@@H](C)O)[C@@H](C)O)C(C)C [Compound 132, N{alpha-4}-(3-methylbutanoyl)-N{epsilon-7}-[2-(2-{2-[2-(2-{2-[(4S)-4-carboxy-4-(17-carboxyheptadecanamido)butanamido]ethoxy}ethoxy)acetamido]ethoxy}ethoxy)acetamido]-[4A,7K,9E,18Q,19K,22V,23T,28Y,30W,31L]hPYY (4-36)] | 1.18 | 64 |
| CC(C)CC(=O)N[C@@H](C)C(=O)N1CCC[C@H]1C(=O)N[C@@H](CCC(=O)O)C(=O)N[C@@H](CCCCNC(=O)COCCOCCNC(=O)COCCOCCNC(=O)CC[C@H](NC(=O)CCCCCCCCCCCCCCCCC(=O)O)C(=O)O)C(=O)N1CCC[C@H]1C(=O)N[C@@H](CCC(=O)O)C(=O)N[C@@H](CCC(=O)O)C(=O)N[C@@H](CC(=O)O)C(=O)N[C@@H](C)C(=O)N[C@@H](CO)C(=O)N1CCC[C@H]1C(=O)N[C@@H](CCC(=O)O)C(=O)N[C@@H](CCC(=O)O)C(=O)N[C@H](C(=O)N[C@@H](CCC(N)=O)C(=O)N[C@@H](CCCNC(=N)N)C(=O)N[C@@H](Cc1ccc(O)cc1)C(=O)N[C@@H](Cc1ccc(O)cc1)C(=O)N[C@H](C(=O)N[C@@H](CCC(=O)O)C(=O)N[C@@H](CC(C)C)C(=O)N[C@@H](CCCNC(=N)N)C(=O)N[C@@H](Cc1c[nH]cn1)C(=O)N[C@@H](Cc1ccc(O)cc1)C(=O)N[C@@H](Cc1ccc(O)cc1)C(=O)N[C@@H](CC(N)=O)C(=O)N[C@@H](Cc1c[nH]c2ccccc12)C(=O)N[C@@H](CC(C)C)C(=O)N[C@H](C(=O)N[C@@H](CCCNC(=N)N)C(=O)N[C@@H](CCC(N)=O)C(=O)N[C@@H](CCCNC(=N)N)C(=O)N[C@@H](Cc1ccc(O)cc1)C(N)=O)[C@@H](C)O)C(C)C)C(C)C [Compound 133, N{alpha-4}-(3-methylbutanoyl)-N{epsilon-7}-[2-(2-{2-[2-(2-{2-[(4S)-4-carboxy-4-(17-carboxyheptadecanamido)butanamido]ethoxy}ethoxy)acetamido]ethoxy}ethoxy)acetamido]-[4A,7K,9E,17V,18Q,22V,23E,28Y,30W,31L]hPYY (4-36)] | 2.31 | 57 |
| CC(C)CC(=O)N[C@@H](C)C(=O)N1CCC[C@H]1C(=O)N[C@@H](CCC(=O)O)C(=O)N[C@@H](CCCCNC(=O)COCCOCCNC(=O)COCCOCCNC(=O)CC[C@H](NC(=O)CCCCCCCCCCCCCCCCC(=O)O)C(=O)O)C(=O)N1CCC[C@H]1C(=O)N[C@@H](CCC(=O)O)C(=O)N[C@@H](CCC(=O)O)C(=O)N[C@@H](CCC(=O)O)C(=O)N[C@@H](CO)C(=O)N[C@@H](CO)C(=O)N1CCC[C@H]1C(=O)N[C@@H](CCC(=O)O)C(=O)N[C@@H](CCC(=O)O)C(=O)N[C@@H](CC(C)C)C(=O)N[C@@H](CCC(N)=O)C(=O)N[C@@H](CCCNC(=N)N)C(=O)N[C@@H](Cc1ccc(O)cc1)C(=O)N[C@@H](Cc1ccc(O)cc1)C(=O)N[C@H](C(=O)N[C@@H](CO)C(=O)N[C@@H](CC(C)C)C(=O)N[C@@H](CCCNC(=N)N)C(=O)N[C@@H](Cc1c[nH]cn1)C(=O)N[C@@H](Cc1ccc(O)cc1)C(=O)N[C@@H](Cc1ccc(O)cc1)C(=O)N[C@@H](CC(N)=O)C(=O)N[C@@H](Cc1c[nH]c2ccccc12)C(=O)N[C@@H](CC(C)C)C(=O)N[C@H](C(=O)N[C@@H](CCCNC(=N)N)C(=O)N[C@@H](CCC(N)=O)C(=O)N[C@@H](CCCNC(=N)N)C(=O)N[C@@H](Cc1ccc(O)cc1)C(N)=O)[C@@H](C)O)C(C)C [Compound 139, N{alpha-4}-(3-methylbutanoyl)-N{epsilon-7}-[2-(2-{2-[2-(2-{2-[(4S)-4-carboxy-4-(17-carboxyheptadecanamido)butanamido]ethoxy}ethoxy)acetamido]ethoxy}ethoxy)acetamido]-[4A,7K,9E,11E,12S,18Q,22V,28Y,30W,31L]hPYY (4-36)] (Isovaleryl-APEK([AEEA-AEEA-γGlu-C18 diacid])PEEESSPEELQRYYVSLRHYYNWLTRQRY-NH2) | 3.83 | 74 |

Second part, led by results:

| Ki [1] [nM] | Compound | Acute Food Intake 24 h [% vehicle] (normal NMRI mice) |
| --- | --- | --- |
| 2.02 | CC(C)CC(=O)N[C@@H](C)C(=O)N1CCC[C@H]1C(=O)N[C@@H](CCC(=O)O)C(=O)N[C@@H](CCCCNC(=O)COCCOCCNC(=O)COCCOCCNC(=O)CC[C@H](NC(=O)CCCCCCCCCCCCCCCCC(=O)O)C(=O)O)C(=O)N1CCC[C@H]1C(=O)N[C@@H](CCC(=O)O)C(=O)N[C@@H](CCC(=O)O)C(=O)N[C@@H](CC(=O)O)C(=O)N[C@@H](C)C(=O)N[C@@H](CCC(=O)O)C(=O)N1CCC[C@H]1C(=O)N[C@@H](CCC(=O)O)C(=O)N[C@@H](CCC(=O)O)C(=O)N[C@@H](CC(C)C)C(=O)N[C@@H](CCC(N)=O)C(=O)N[C@@H](CCCCN)C(=O)N[C@@H](Cc1ccc(O)cc1)C(=O)N[C@@H](Cc1ccc(O)cc1)C(=O)N[C@H](C(=O)N[C@@H](CO)C(=O)N[C@@H](CC(C)C)C(=O)N[C@@H](CCCNC(=N)N)C(=O)N[C@@H](Cc1c[nH]cn1)C(=O)N[C@@H](Cc1ccc(O)cc1)C(=O)N[C@@H](Cc1ccc(O)cc1)C(=O)N[C@@H](CC(N)=O)C(=O)N[C@@H](Cc1c[nH]c2ccccc12)C(=O)N[C@@H](CC(C)C)C(=O)N[C@H](C(=O)N[C@@H](CCCNC(=N)N)C(=O)N[C@@H](CCC(N)=O)C(=O)N[C@@H](CCCNC(=N)N)C(=O)N[C@@H](Cc1ccc(O)cc1)C(N)=O)[C@@H](C)O)C(C)C [Compound 150, N{alpha-4}-(3-methylbutanoyl)-N{epsilon-7}-[2-(2-{2-[2-(2-{2-[(4S)-4-carboxy-4-(17-carboxyheptadecanamido)butanamido]ethoxy}ethoxy)acetamido]ethoxy}ethoxy)acetamido]-[4A,7K,9E,13E,18Q,19K,22V,28Y,30W,31L]hPYY (4-36)] | 67 |
| 1.43 | CC(C)CC(=O)N[C@@H](C)C(=O)N1CCC[C@H]1C(=O)N[C@@H](CCC(=O)O)C(=O)N[C@@H](CCCCNC(=O)COCCOCCNC(=O)COCCOCCNC(=O)CC[C@H](NC(=O)CCCCCCCCCCCCCCCCC(=O)O)C(=O)O)C(=O)N1CCC[C@H]1C(=O)N[C@@H](CCC(=O)O)C(=O)N[C@@H](C)C(=O)N[C@@H](CCC(=O)O)C(=O)N[C@@H](C)C(=O)N[C@@H](CO)C(=O)N1CCC[C@H]1C(=O)N[C@@H](CCC(=O)O)C(=O)N[C@@H](CCC(=O)O)C(=O)N[C@@H](CC(C)C)C(=O)N[C@@H](CCC(N)=O)C(=O)N[C@@H](CCCNC(=N)N)C(=O)N[C@@H](Cc1ccc(O)cc1)C(=O)N[C@@H](Cc1ccc(O)cc1)C(=O)N[C@H](C(=O)N[C@@H](CO)C(=O)N[C@@H](CC(C)C)C(=O)N[C@@H](CCCNC(=N)N)C(=O)N[C@@H](Cc1c[nH]cn1)C(=O)N[C@@H](Cc1ccc(O)cc1)C(=O)N[C@@H](Cc1ccc(O)cc1)C(=O)N[C@@H](CC(N)=O)C(=O)N[C@@H](Cc1c[nH]c2ccccc12)C(=O)N[C@@H](CC(C)C)C(=O)N[C@H](C(=O)N[C@@H](CCCNC(=N)N)C(=O)N[C@@H](CCC(N)=O)C(=O)N[C@@H](CCCNC(=N)N)C(=O)N[C@@H](Cc1ccc(O)cc1)C(N)=O)[C@@H](C)O)C(C)C [Compound 151, N{alpha-4}-(3-methylbutanoyl)-N{epsilon-7}-[2-(2-{2-[2-(2-{2-[(4S)-4-carboxy-4-(17-carboxyheptadecanamido)butanamido]ethoxy}ethoxy)acetamido]ethoxy}ethoxy)acetamido]-[4A,7K,9E,10A,11E,18Q,22V,28Y,30W,31L]hPYY (4-36)] | 45 |
